Data reported in US8071633B2, “Pharmaceutical composition for treating spinocerebellar ataxia” (Shionogi & Co., Ltd., priority 2004, dated 2011).

Key:
Rolling Mouse Nagoya [1] = experiment: Experiment 1: effect of improving ataxia on Rolling Mouse Nagoya (fall index, open-field method); format: in vivo; conditions: for effect on improvement of ataxia (fall index): 1 hour after administration, FIG. 1
Excerpt: Experiment 1 Effect of improving ataxia on Rolling Mouse Nagoya
Rolling Mouse Nagoya, a hereditary ataxia mouse, is known as a model mouse for spinocerebellar ataxia and has been reported in many papers (E. Kurihara, N. Fukuda, S. Narumi, T. Matsuo, S. Saji, and Y. Nagawa, Jpn. Pharmacol., Ther., 13, 49-56 (1985), Y. Mano, K. Matsui, E. Toyoshima, and K. Ando, Acta. Neurol. Scand., 73, 352-358 (1986), K. Kinoshita, T. Fujitsuka, M. Yamamura, and Y. Matsuoka, Eur. J. Pharmacol., 274, 65-72 (1995), K. Kinoshita, T. Fukushima, Y, Kodama, J. Sugihara, M. Yamamura, and Y. Matsuoka, Biol. Pharm. Bull., 20, 36-39 (1997)).
Effect of Compound (I-1) for ataxia of Rolling Mouse Nagoya was investigated. The following compounds in Patent Literature 1 and Non-Patent Literature 1 were used as Control Compounds 1 and 2.
An effect on improvement of ataxia was evaluated with a fall index by an open-field method. Mice were left in the center of an open-field (circle open-field, 75 cm in a diameter, 25 divisions). Number of divisions passed and numbers of falls for 5 minutes were counted, and a fall index (numbers of falls/number of divisions passed) was calculated.
Each of the compounds was dissolved in a physiological saline on the day of the experiment. Each compound was orally administered to mice using a sonde for oral administration at the following dosage; Compound (I-1): 1 mg/kg and 3 mg/kg, Control Compound 1: 30 mg/kg and 100 mg/kg, Control Compound 2: 100 mg/kg and 300 mg/kg. Physiological saline alone was administered to mice as a control group. Volume for oral administration was 0.2 mL per 20 g body weight of a mouse.
Effect on improvement of ataxia for each mouse was evaluated 1 hour after administration by the open-field method. Sample numbers were 5 or more in every group.

[2] = test system: cerebellum-injured rat by administration of Ara-C; experiment: Experiment 2: effect of improving ataxia on cerebellum-injured rat by administration of Ara-C (fall index, open-field method); format: in vivo, Sprauge-Dawley rats; conditions: for effect on improvement of ataxia (fall index): oral once a day for seven days, 24 hours after final administration, FIG. 2; for dosage ratio giving the same level efficacy versus Compound (I-1): oral, repeated administration
Description: Experiment 2 Effect of improving ataxia on cerebellum-injured rat by administration of Ara-C
Ara-C (60 mg/kg, Nippon Shinyaku) was subcutaneously administered to Sprauge-Dawley rats (CLEA Japan, Inc) of 2 days old and 3 days old, and the effects of improving ataxia on Compound (I-1), Control Compound 1 and Control Compound 2 at 4 weeks old were investigated.
The effect of improving on ataxia was evaluated with a fall index by an open-field method. Rats were left in the center of an open-filed (circle open-filed, 75 cm in a diameter, 25 divisions), number of divisions passed and numbers of falls for 3 minutes were counted, and a fall index (numbers of falls/number of divisions passed) was calculated.
Each of the compounds was dissolved in a physiological saline on the day of administration. Each compound was orally administered to rats using a sonde for oral administration at the following dosage; Compound (I-1): 0.1 mg/kg, 0.3 mg/kg, 1 mg/kg and 3 mg/kg, Control Compound 1: 30 mg/kg and 100 mg/kg, Control Compound 2: 100 mg/kg and 300 mg/kg. Physiological saline alone was administered to rats as a control group. The compounds were repetitively orally administered one a day for seven days and the effect was investigated 24 hours after the final administration. Volume for oral administration was 0.1 mL per 100 g body weight of a rat. Sample numbers were 5 or more in every group.

Rolling Mouse Nagoya [3] = experiment: Experiment 3: effect of improving ataxia on Rolling Mouse Nagoya (fall index, square open-field); format: in vivo; conditions: oral 100 mg/kg, 1 hour after administration, FIG. 3
Description: Experiment 3 Effect of improving ataxia on Rolling Mouse Nagoya
Effects of the compounds described in Patent Literature 8 (I-3: R=CN, I-1: R=CONH2) and Control Compound 2 on ataxia on Rolling Mouse Nagoya were investigated.
The effect on ataxia was evaluated with a fall index by an open-field method. Mice were left in the center of an open-field (square open-field, 100 cm×100 cm, divided into 25 squares of 20 cm×20 cm), number of squares passed and numbers of falls for 10 minutes were counted, and a fall index (numbers of falls/number of squares passed) was calculated.
Each of the compounds was dissolved in a physiological saline on the day of the experiment. Each compound was orally administered to mice using a sonde for oral administration at the following dosage; Compounds (I-3) and (I-4): 10 mg/kg, Control Compound 2: 100 mg/kg. Volume for oral administration was 0.2 mL per 20 g body weight of a mouse.
Each of the test compound was orally administered just after a fall index of each mouse in the open-field was calculated. A fall index was calculated again 1 hour after administration and the effect of improving ataxia was evaluated. Sample numbers were 5 or more in every group.

[4] = oral, comparison of effective doses

Row | Compound | effect on improvement of ataxia (fall index) (Rolling Mouse Nagoya [1]; oral, even at 300 mg/kg (100 and 300 mg/kg tested)) | effect on improvement of ataxia (fall index) ([2]; even at 300 mg/kg) | dosage ratio giving the same level efficacy versus Compound (I-1) [2] | effect of improving ataxia (fall index before vs after administration) (Rolling Mouse Nagoya [3]) | effect on improvement of ataxia (fall index) (Rolling Mouse Nagoya [1]; oral 3 mg/kg) | effect of improving ataxia relative to Control Compound 1 (Rolling Mouse Nagoya [1]; [4]) | effect of improving ataxia relative to Control Compound 2 (Rolling Mouse Nagoya [1]; [4]) | effect on improvement of ataxia (fall index) ([2]; 0.3 mg/kg or more) | effect on improvement of ataxia (fall index) (Rolling Mouse Nagoya [1]; oral, only at 100 mg/kg (30 and 100 mg/kg tested)) | effect on improvement of ataxia (fall index) ([2]; only at 100 mg/kg (30 and 100 mg/kg tested))
1 | NC(=O)[C@H]1CCCN1C(=O)[C@@H](Cc1c[nH]cn1)NC(=O)[C@@H]1CCC(=O)N1 [Control Compound 2] | does not show the improvement effect | does not show the improvement effect | 1/1000 | weak improvement effect |  |  |  |  |  | 
2 | C[C@@H]1OC(=O)N[C@@H]1C(=O)N[C@@H](Cc1cscn1)C(=O)N1CCC[C@H]1C.O.O.O [Compound (I-1)] |  |  |  |  | superior effect on improvement of ataxia | ≥ 30 times | ≥ 100 times | superior effect on improvement of ataxia to Control Compounds |  | 
3 | CN1C(=O)C[C@H](C(=O)N[C@H](Cc2c[nH]cn2)C(=O)N2CCC[C@@H]2C(N)=O)NC1=O [Control Compound 1] |  |  | 1/300 |  |  |  |  |  | superior effect of improving ataxia to that in a control group | superior effect on improvement of ataxia in comparison of a control group
